Experimental data taken from US9115151B2, “Substituted 2,10-dihydro-9-oxa-1,2,4A-triazaphenanthren-3-ones and uses thereof” (AbbVie Inc., priority 2012, dated 2015).
Structures can show the parent of a compound that is named as a salt.

Experiments:
PKCα = target: T1, PKCα (Homo sapiens, UniProt P17252); test: In vitro enzyme assay (time-resolved fluorescence kinase assay), PKCα, 100 μM ATP; format: biochemical; conditions: 100 μM ATP; read-out: PKCα enzyme IC50
T1 construct: His6; purchased Millipore; host or cells: baculovirus in Sf21 cells
Procedure, shortened: (§1)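 Read-out was time-resolved fluorescence, corrected for a minus-enzyme blank and converted to percent activity relative to enzyme without drug. They were stopped with EDTA.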

PKCθ = target: T2, PKCθ (Homo sapiens, UniProt Q04759); test: In vitro enzyme assay (time-resolved fluorescence kinase assay), PKCθ, 100 μM ATP; format: biochemical
T2 construct: His6; purchased Millipore; host or cells: baculovirus in Sf21 cells
T2 sequence (Q04759 whole entry): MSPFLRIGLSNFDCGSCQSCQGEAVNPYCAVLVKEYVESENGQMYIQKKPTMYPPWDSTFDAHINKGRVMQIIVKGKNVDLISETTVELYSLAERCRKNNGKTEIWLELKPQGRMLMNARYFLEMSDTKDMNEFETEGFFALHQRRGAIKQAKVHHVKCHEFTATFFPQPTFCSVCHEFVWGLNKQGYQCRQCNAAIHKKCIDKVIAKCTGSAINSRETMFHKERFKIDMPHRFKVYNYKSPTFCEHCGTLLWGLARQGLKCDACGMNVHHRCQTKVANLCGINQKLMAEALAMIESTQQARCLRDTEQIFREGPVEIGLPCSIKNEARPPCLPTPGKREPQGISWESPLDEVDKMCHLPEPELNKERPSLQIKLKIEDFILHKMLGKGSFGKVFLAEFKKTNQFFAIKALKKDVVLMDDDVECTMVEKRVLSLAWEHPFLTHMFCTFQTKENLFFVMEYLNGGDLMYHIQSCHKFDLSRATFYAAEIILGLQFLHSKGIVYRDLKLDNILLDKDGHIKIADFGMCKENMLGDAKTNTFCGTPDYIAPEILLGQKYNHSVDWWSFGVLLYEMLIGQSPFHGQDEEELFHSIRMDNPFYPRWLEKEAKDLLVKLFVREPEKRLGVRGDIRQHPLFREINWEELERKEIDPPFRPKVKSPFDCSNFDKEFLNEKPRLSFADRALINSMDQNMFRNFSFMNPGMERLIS
Procedure, shortened: as §1

[1] = system: CD3/CD28 induced IL-2 in human T-Blasts; test: T-Blasts CD3/CD28 induced IL-2 assay; format: cell-based; conditions: read-out: CD3/CD28-stimulated IL2 in T-blasts EC50
Procedure, shortened: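 IL-2 in supernatants read after 24 h 37° C stimulation of human PHA T-blasts (2×10^5/well) with anti-CD3/anti-CD28 at 5 μg/mL final. Duplicate eight-point, 1/3-step compound series added 30 min before stimulus; residual cells checked by MTT for toxicity.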

With `CC1C(=O)NN=C2COc3cc(-c4cccc(C#N)c4)c(N(C)C4(C)CN(C)C4)cc3N21` (stereo not drawn) [Example 170] the IC50 (PKCα) was 1000 to 10000 nM, the IC50 (PKCθ) was < 250 nM and the EC50 [1] was < 250 nM.
In the case of `CC1C(=O)NN=C2COc3cc(-c4ccc5ccccc5c4)c(NC4CNC4)cc3N21` (racemic) [Example 36], the IC50 (PKCα) is reported as 1000 to 10000 nM, the IC50 (PKCθ) is reported as < 250 nM and the EC50 [1] is reported as < 250 nM.
With `CC1C(=O)NN=C2COc3cc(-c4ccc5scnc5c4)c(NC4CNC4)cc3N21` (racemic) [Example 37] the IC50 (PKCα) was 1000 to 10000 nM, the IC50 (PKCθ) was < 250 nM and the EC50 [1] was < 250 nM.
In the case of `Cc1cc(F)cc(-c2cc3c(cc2NC2CNC2)N2C(=NNC(=O)C2C)CO3)c1` (racemic) [Example 33], the IC50 (PKCα) is reported as 1000 to 10000 nM, the IC50 (PKCθ) is reported as < 250 nM and the EC50 [1] is reported as 250 to 1000 nM.
For `C[C@@H]1C(=O)NN=C2COc3cc([C@@H](C)C(F)(F)F)c(NC4CNC4)cc3N21` [Example 61], the IC50 (PKCα) was 1000 to 10000 nM, the IC50 (PKCθ) was < 250 nM and the EC50 [1] was 250 to 1000 nM.
For `Cc1cn(C2(C)CNC2)c2cc3c(cc12)OCC1=NNC(=O)[C@@H](C)N13` [Example 157], the IC50 (PKCα) was 250 to 1000 nM, the IC50 (PKCθ) was < 250 nM and the EC50 [1] was < 250 nM.
With `C[C@@H]1C(=O)NN=C2COc3cc(C(F)(F)F)c([C@@H](C)C4(C)CNC4)cc3N21` (single isomer, unassigned) [Example 147-1, trifluoroacetic acid] the IC50 (PKCα) was 250 to 1000 nM, the IC50 (PKCθ) was < 250 nM and the EC50 [1] was < 250 nM.
With `C[C@@H]1C(=O)NN=C2COc3cc4ccn(C5(C)CN(C)C5)c4cc3N21` [Example 160, (R)-10-(1,3-Dimethyl-azetidin-3-yl)-1-methyl-3,5-dihydro-10H-6-oxa-3,4,10,11b-tetraaza-cyclopenta[b]phenanthren-2-one hydrochloride] the IC50 (PKCα) was 250 to 1000 nM, the IC50 (PKCθ) was < 250 nM and the EC50 [1] was < 250 nM.
In the case of `C[C@@H]1C(=O)NN=C2COc3cc(-c4ccco4)c([C@@H](C)C4(C)CN(C)C4)cc3N21` [Example 136], the IC50 (PKCα) is reported as 1000 to 10000 nM, the IC50 (PKCθ) is reported as < 250 nM and the EC50 [1] is reported as 250 to 1000 nM.
For `CC1C(=O)NN=C2COc3cc(-c4ccccc4F)c(N4CC5CCC4CN5C)cc3N21` (stereo not drawn) [Example 236], the IC50 (PKCα) was 1000 to 10000 nM, the IC50 (PKCθ) was < 250 nM and the EC50 [1] was 1000 to 10000 nM.
For `C[C@@H]1C(=O)NN=C2COc3cc(-c4c(Cl)cccc4N4CCNCC4)ccc3N21` [Example 131], the IC50 (PKCα) was 1000 to 10000 nM, the IC50 (PKCθ) was < 250 nM and the EC50 [1] was 250 to 1000 nM.
For `Cc1ccc(F)cc1-c1cc2c(cc1NC1CNC1)N1C(=NNC(=O)C1C)CO2` (racemic) [Example 15], the IC50 (PKCα) was 1000 to 10000 nM, the IC50 (PKCθ) was < 250 nM and the EC50 [1] was < 250 nM.
For `Cc1cccc(-c2cc3c(cc2N(C)C2(C)CN(C)C2)N2C(=NNC(=O)C2C)CO3)c1` (stereo not drawn) [Example 172], the IC50 (PKCα) was 250 to 1000 nM, the IC50 (PKCθ) was < 250 nM and the EC50 [1] was < 250 nM.
`CC1C(=O)NN=C2COc3cc(-c4ccccc4)c(OC4CNC4)cc3N21` (stereo not drawn) [Example 66] was tested, and the IC50 (PKCα) was 1000 to 10000 nM, the IC50 (PKCθ) was < 250 nM and the EC50 [1] was < 250 nM.
For `C[C@@H]1C(=O)NN=C2COc3cc(-c4ccccc4F)c(N(C)C4(C)CN(C(=O)CCN(C)C)C4)cc3N21` [Example 185], the IC50 (PKCα) was 250 to 1000 nM, the IC50 (PKCθ) was < 250 nM and the EC50 [1] was < 250 nM.
`CC(C)c1cc2c(cc1[C@@H]1CCNC[C@@H]1C)N1C(=NNC(=O)[C@H]1C)CO2` [Example 202] was tested, and the IC50 (PKCα) was 1000 to 10000 nM, the IC50 (PKCθ) was < 250 nM and the EC50 [1] was < 250 nM.
`Cc1ccc(-c2cc3c(cc2NC2CNC2)N2C(=NNC(=O)C2C)CO3)cc1F` (racemic) [Example 18] was tested, and the IC50 (PKCα) was 1000 to 10000 nM, the IC50 (PKCθ) was < 250 nM and the EC50 [1] was < 250 nM.
For `CC1C(=O)NN=C2COc3cc(-c4cccc(COC(C)(C)C)c4)c(NC4CNC4)cc3N21` (racemic) [Example 40], the IC50 (PKCα) was 1000 to 10000 nM, the IC50 (PKCθ) was 250 to 1000 nM and the EC50 [1] was 250 to 1000 nM.
In the case of `CC1C(=O)NN=C2CSc3ccc(NC4CNC4)cc3N21` (stereo not drawn) [Example 97, 6-(Azetidin-3-ylamino)-4-methyl-2,10-dihydro-9-thia-1,2,4a-triaza-phenanthren-3-one hydrochloric acid salt], the IC50 (PKCα) is reported as 1000 to 10000 nM, the IC50 (PKCθ) is reported as < 250 nM and the EC50 [1] is reported as < 250 nM.
With `C[C@@H]1C(=O)NN=C2COc3cc(-c4ccccc4F)c(N(C)C4(C)CN(C5COC5)C4)cc3N21` [Example 194] the IC50 (PKCα) was 250 to 1000 nM, the IC50 (PKCθ) was < 250 nM and the EC50 [1] was 250 to 1000 nM.
`C[C@@H]1C(=O)NN=C2COc3cc(-c4ccccc4)c(NC4CNC4)cc3N21` (single isomer, unassigned) [Example 1-1, trifluoroacetic acid] was tested, and the IC50 (PKCα) was 1000 to 10000 nM, the IC50 (PKCθ) was < 250 nM and the EC50 [1] was < 250 nM.
For `CC1C(=O)NN=C2COc3cc(C(F)(F)F)c(OC4(C)CNC4)cc3N21` (stereo not drawn) [Example 107, 4-Methyl-6-(3-methyl-azetidin-3-yloxy)-7-trifluoromethyl-2,10-dihydro-9-oxa-1,2,4a-triaza-phenanthren-3-one trifluoroacetic acid], the IC50 (PKCα) was < 250 nM, the IC50 (PKCθ) was < 250 nM and the EC50 [1] was < 250 nM.
For `CC1C(=O)NN=C2COc3cc(-c4ccccc4)c(N(C)C4(C)CN(Cc5ccccc5)C4)cc3N21` (stereo not drawn) [Example 92], the IC50 (PKCα) was 250 to 1000 nM, the IC50 (PKCθ) was < 250 nM and the EC50 [1] was < 250 nM.
`CC1C(=O)NN=C2COc3cc(-c4ccc5ncsc5c4)c(NC4CNC4)cc3N21` (racemic) [Example 38] was tested, and the IC50 (PKCα) was 1000 to 10000 nM, the IC50 (PKCθ) was < 250 nM and the EC50 [1] was 250 to 1000 nM.
In the case of `CCc1cc2c(cc1NC1CNC1)N1C(=NNC(=O)C1C)CO2` (stereo not drawn) [Example 59], the IC50 (PKCα) is reported as 1000 to 10000 nM, the IC50 (PKCθ) is reported as < 250 nM and the EC50 [1] is reported as 250 to 1000 nM.
With `C[C@@H]1C(=O)NN=C2COc3cc(-c4ccc(F)cc4F)c(NC4CNC4)cc3N21` [Example 4] the IC50 (PKCα) was 1000 to 10000 nM, the IC50 (PKCθ) was < 250 nM and the EC50 [1] was < 250 nM.
`C[C@@H]1C(=O)NN=C2COc3cc(-c4ccccc4F)c(N4[C@@H]5CC[C@H]4CNC5)cc3N21` [Example 228] was tested, and the IC50 (PKCα) was 250 to 1000 nM, the IC50 (PKCθ) was < 250 nM and the EC50 [1] was 250 to 1000 nM.
For `C[C@@H]1CN(C)CCN1c1cc2c(cc1-c1ccccc1F)OCC1=NNC(=O)[C@@H](C)N12` [Example 230], the IC50 (PKCα) was 250 to 1000 nM, the IC50 (PKCθ) was < 250 nM and the EC50 [1] was < 250 nM.
With `C[C@@H]1C(=O)NN=C2COc3cc(-c4ccc(Cl)cc4)c(NC4CNC4)cc3N21` [Example 7] the IC50 (PKCα) was 1000 to 10000 nM, the IC50 (PKCθ) was < 250 nM and the EC50 [1] was < 250 nM.
`CC[C@H]1CNCCN1c1cc2c(cc1-c1ccccc1F)OCC1=NNC(=O)[C@@H](C)N12` [Example 227] was tested, and the IC50 (PKCα) was 1000 to 10000 nM, the IC50 (PKCθ) was < 250 nM and the EC50 [1] was 250 to 1000 nM.
In the case of `C[C@@H]1C(=O)NN=C2COc3cc4ccn([C@]5(C)CCNC5)c4cc3N21` [Example 164, (R)-1-Methyl-10-((R)-3-methyl-pyrrolidin-3-yl)-3,5-dihydro-10H-6-oxa-3,4,10,11b-tetraaza-cyclopenta[b]phenanthren-2-one], the IC50 (PKCα) is reported as 1000 to 10000 nM, the IC50 (PKCθ) is reported as < 250 nM and the EC50 [1] is reported as 250 to 1000 nM.
In the case of `CC(=O)N1CC(C)(n2ccc3cc4c(cc32)N2C(=NNC(=O)[C@H]2C)CO4)C1` [Example 155, (R)-10-(1-Acetyl-3-methyl-azetidin-3-yl)-1-methyl-3,5-dihydro-10H-6-oxa-3,4,10,11b-tetraaza-cyclopenta[b]phenanthren-2-one hydrochloric acid], the IC50 (PKCα) is reported as 1000 to 10000 nM, the IC50 (PKCθ) is reported as < 250 nM and the EC50 [1] is reported as 250 to 1000 nM.
With `CC(C)c1cc2c(cc1[C@@H](C)C1(C)CN(CCO)C1)N1C(=NNC(=O)[C@H]1C)CO2` [Example 138, (R)-6-{(R)-1-[1-(2-Hydroxy-ethyl)-3-methyl-azetidin-3-yl]-ethyl}-7-isopropyl-4-methyl-2,10-dihydro-9-oxa-1,2,4a-triaza-phenanthren-3-one hydrochloric acid] the IC50 (PKCα) was 250 to 1000 nM, the IC50 (PKCθ) was < 250 nM and the EC50 [1] was 250 to 1000 nM.
